{"source": "patent US7087633B2", "about": "“Method for treating perinatal asphyxia in a human or animal neonate” (Universitair Medisch Centrum, priority 2000, dated 2006)", "key": {"[1]": {"system": "newborn Dutch store piglets subjected to HI", "conditions": "for neurologic score / electrical brain activity (aEEG): 3 to 24 h post HI, versus PLAC, repeated ANOVA, all p<0.05; for piglets died post HI: ALLO n=10 (HI complications, 18 h), DFO n=10 (hypovolemic shock, 13 h), 2-IB n=7 (sepsis)", "description": "Following anaesthesia and instrumentation 37 newborn Dutch store piglets (1–3 days old) were subjected to HI by occluding both common carotid arteries with inflatable cuffs and reducing the fraction of inspired oxygen for 60 min. MRS was performed continuously before, during and up to 3 h after start of HI and repeated at 24 h post HI. During hypoxia FiO2 was reduced>on-line=until PCr/Pi had decreased to at least 25% of baseline values. Immediately after HI the piglets received either placebo (PLAC; n=10), ALLO (20 mg/kg iv; n=10), DFO (10 mg/kg iv; n=10) or 2-IB (150 μM i.v.; n=7). Before HI and from 3 to 24 h post HI the piglets were monitored using aEEG for electrical brain activity determination. A neurologic scoring system was used ranging from 4 (normal) to 0 (flat trace). For 1H-MRS a PRESS sequence with CHESS water suppression was used to define a 1.7 ml periventricular voxel (TR 6 s, TE 144 ms, and nt=32 or 64). 31 P— MRS was done using a 4 cm-diameter surface coil for excitation and detection (TR 10 s, nt=32). Peak amplitudes of PCr, Pi, Lac and NAA were determined with time domain fitting procedures (VARPRO). Paired t-tests were used to compare measurements at 24 h versus baseline; repeated ANOVA served to monitor for trends between treatment groups."}, "[2]": {"system": "brain regions at risk after HI (hippocampus, cortex, striatum and cerebellum)", "test": "Histological analysis and nitrotyrosylation immunohistochemistry of brain at 24 h post HI", "type": "in vivo, piglet"}, "[3]": {"system": "crossbred piglets", "test": "Postnatal growth experiments in newborn piglets", "type": "in vivo, piglet", "description": "A study in newborn piglets was performed to identify the potential effects of 2-iminobiotin on postnatal growth. Data from 138 crossbred piglets (originating from 28 litters) were collected on a commercial, Dutch pig farm over the period from 21 Jul. 2001 to 6 May 2003."}, "[4]": {"system": "newborn piglets", "conditions": "cited from earlier work"}, "[5]": {"system": "free radical-induced brain damage in newborns", "conditions": "pilot study in newborn babies and experimental studies; cited from earlier work"}, "[6]": {"system": "neonatal rats", "conditions": "cited from earlier work"}, "[7]": {"system": "neonatal rats", "conditions": "cited from earlier work", "remark": "listed apart in the source"}, "[8]": {"system": "neuronal NOS", "conditions": "injectable intraperitoneally; cited from earlier work"}, "[9]": {"conditions": "24 h post HI versus baseline, ALLO 20 mg/kg iv, DFO 10 mg/kg iv, 2-IB 150 μM i.v."}, "[10]": {"conditions": "Least Square Means, total 1.1 mg/kg in 24 h after birth, n=67"}, "[11]": {"conditions": "during the first 10 days of life, n=67"}}, "note": "Entries after “also recorded” stand apart in the source; their conditions may differ.", "data": [{"smiles": "N=C1N[C@H]2[C@H](CS[C@H]2CCCCC(=O)O)N1", "note": "[2-IB, 2-iminobiotin]", "values": [{"measurement": "neurologic score / electrical brain activity (aEEG)", "setting": "[1]", "result": "significant difference; also recorded: preserved electrical brain activity"}, {"measurement": "Lac/NAA", "setting": "[1]; [9]", "result": "identical to baseline values; also recorded: prevented increment"}, {"measurement": "PCr/Pi (cerebral energy status)", "setting": "[1]; [9]", "result": "identical to baseline values; also recorded: preserved completely"}, {"measurement": "piglets died post HI", "setting": "[1]", "result": 1, "unit": "piglet"}, {"measurement": "more effective than treatment with allopurinol and/or deferoxamine", "setting": "[1]; in vivo studies involving piglets, versus allopurinol and/or deferoxamine", "result": "about 25%"}, {"measurement": "more effective than placebo treatment in preventing and/or treating the effects", "setting": "[1]; in vivo studies involving piglets, versus placebo", "result": "about 60%"}, {"measurement": "alive cells in brain regions at risk after HI", "setting": "[2]; histology", "result": "more alive cells"}, {"measurement": "necrosis", "setting": "[2]; histology", "result": "less necrosis"}, {"measurement": "structural architecture", "setting": "[2]; histology", "result": "better preserved structural architecture"}, {"measurement": "nitrotyrosylation staining in the affected areas", "setting": "[2]; immunohistochemistry", "result": "no staining; also recorded: less nitrotyrosylation staining"}, {"measurement": "Growth at 6 weeks", "setting": "[3]; [10]", "result": 250, "unit": "gram/day"}, {"measurement": "Growth at 10 days", "setting": "[3]; [10]", "result": 208, "unit": "gram/day"}, {"measurement": "Growth at weaning", "setting": "[3]; [10]", "result": 248, "unit": "gram/day"}, {"measurement": "piglets died (number)", "setting": "[3]; [11]", "result": 9, "unit": "piglets"}, {"measurement": "piglets died (percentage of group)", "setting": "[3]; [11]", "result": 13, "unit": "%"}, {"measurement": "Pathology and histology: adverse effects of treatment", "setting": "[3]; in vivo", "result": "no adverse effects"}]}, {"smiles": "N=C(NCCC[C@H](N)C(=O)O)N[N+](=O)[O-]", "note": "[NNLA, N^G-nitro-L-arginine]", "values": [{"measurement": "cerebral energy status during and after hypoxia-ischemia", "setting": "[4]", "result": "compromised"}]}, {"smiles": "Oc1ncnc2[nH]ncc12", "note": "[ALLO, allopurinol, reference compound]", "values": [{"measurement": "neurologic score / electrical brain activity (aEEG)", "setting": "[1]", "result": "significant difference"}, {"measurement": "PCr/Pi (cerebral energy status)", "setting": "[1]; [9]", "result": "prevented partly"}, {"measurement": "piglets died post HI", "setting": "[1]", "result": 1, "unit": "piglet"}, {"measurement": "free radical-induced brain damage in newborns", "setting": "[5]", "result": "reduce free radical-induced brain damage in newborns to some extend"}]}, {"smiles": "CC(=O)N(O)CCCCCNC(=O)CCC(=O)N(O)CCCCCNC(=O)CCC(=O)N(O)CCCCCN", "note": "[DFO, deferoxamine, reference compound]", "values": [{"measurement": "piglets died post HI", "setting": "[1]", "result": 1, "unit": "piglet"}]}, {"smiles": "N=C(N)NN", "note": "[aminoguanidine]", "values": [{"measurement": "infarct volumes", "setting": "[6]", "result": "reduced infarct volumes"}]}, {"smiles": "COC(=O)[C@@H](N)CCCNC(=N)N[N+](=O)[O-]", "note": "[L-NAME, L-nitro-arginine methyl ester]", "values": [{"measurement": "neuroprotection", "setting": "[7]", "result": "neuroprotective"}]}, {"smiles": "O=[N+]([O-])c1cccc2cn[nH]c12", "note": "[7-nitroindazole]", "values": [{"measurement": "apoptosis", "setting": "[8]", "result": "effective in reducing apoptosis"}, {"measurement": "levels of citrulline", "setting": "[8]", "result": "reducing the levels of citrulline"}]}]}
